# Where two headings read alike, the source gives them in different places.
# What was measured:
# [1] = Pharmacokinetic test in rats in vivo, plasma concentration after oral administration; details: for Cmax: 10 mg/kg, intragastric, suspension in sodium carboxymethyl cellulose solution
# Description: (§1) Experimental method: SD rats were used as experimental animals and intragastrically administrated with a milky white suspension prepared from a sodium carboxymethyl cellulose solution at a dose of 10 mg/kg. After the intragastric administration, blood was collected at the time points of 0.17, 0.33, 0.5, 1, 1.5, 2, 4, 6, 8, 12 and 24 h. 0.3 ml of whole blood was taken and subjected to centrifugation, and then 0.1 ml of plasma was taken and analyzed by LC-MS.
# [2] = Equilibrium solubility of crystal forms in purified water (HPLC); format: physicochemical; details: for Water solubility: saturated (equilibrium) solubility in purified water, room temperature, HPLC, methanesulfonate; for Solubility in water (in words): summary of Table 8
# Source text: Preparation of a standard curve: Appropriate amounts of a series of compounds were accurately weighed, placed in volumetric flasks, and dissolved and diluted with an appropriate amount of acetonitrile to a certain scale to serve as stock solutions. Appropriate amounts of the stock solutions were accurately weighed, placed in volumetric flasks, diluted with a mobile phase to a certain scale, and uniformly shaken to obtain a series of high-concentration standard solutions and low-concentration standard solutions. The standard solutions were separately sampled in the sequence from low concentration to high concentration, and peak areas were recorded. Linear regression was conducted with the compound concentration as the abscissa and the peak area as the ordinate to obtain a linear regression equation of a compound, namely, a standard curve of the solubility of the compound as shown in the formula (I).
# Determination of equilibrium solubility: An excess amount of a compound was placed in a 10 mL plugged EP tube, 2 mL of purified water was added, and the compound was subjected to ultrasonic treatment at room temperature for 15 min, followed by standing for 20 min. The above operations were repeated for 4 times, centrifugation was conducted at 3,000 r/min for 10 min, and a supernatant was taken (after the supernatant was properly diluted with a solvent) and filtered through a microporous filtration membrane. A filtrate was taken for HPLC detection, and the peak area was recorded and substituted into the standard curve to calculate the saturated solubility of each compound in water.
# [3] = Pharmacokinetic test in dogs in vivo, plasma concentration after oral administration; details: Beagles
# Description: as §1, with “Beagles” for “SD rats”, “0,” for “0.17, 0.33,”, “1,” for “1, 1.5,”, “2, 3,” for “2,”, “8” for “8, 12”
# [4] = SD, rat, plasma, po, mean n=3, read-out: Cmax
# [5] = SD rats, mean n=3, methanesulfonate
Structure (SMILES),Water solubility [2],Solubility in water (in words) [2],further results
"COc1ccc(-c2nn([C@@H](C)c3nc4cccc(Cl)c4c(=O)n3-c3ccccc3)c3ncnc(N)c23)c(F)c1F [(S)-2-(1-(4-amino-3-(2,3-difluoro-4-methoxyphenyl)-1H-pyrazolo[3,4-d]pyrimidin-1-yl)ethyl)-5-chloro-3-phenylquinazoline-4(3H)-one]",,,"Cmax [1, 4]: 0.456 µg/mL"
"COc1ccc(-c2nn([C@@H](C)c3nc4cccc(Cl)c4c(=O)n3-c3ccccc3)c3ncnc(N)c23)c(F)c1F.CS(=O)(=O)O [Crystal form B, (S)-2-(1-(4-amino-3-(2,3-difluoro-4-methoxyphenyl)-1H-pyrazolo[3,4-d]pyrimidin-1-yl)ethyl)-5-chloro-3-phenylquinazoline-4(3H)one methanesulfonate]",2.50 µg/mL,soluble in water,
"COc1ccc(-c2nn([C@@H](C)c3nc4cccc(Cl)c4c(=O)n3-c3ccccc3)c3ncnc(N)c23)c(F)c1F.CS(=O)(=O)O [Crystal form C, (S)-2-(1-(4-amino-3-(2,3-difluoro-4-methoxyphenyl)-1H-pyrazolo[3,4-d]pyrimidin-1-yl)ethyl)-5-chloro-3-phenylquinazoline-4(3H)one methanesulfonate]",3.84 µg/mL,soluble in water,"Cmax [1, 4]: 1.64 µg/mL"
"COc1ccc(-c2nn([C@@H](C)c3nc4cccc(Cl)c4c(=O)n3-c3ccccc3)c3ncnc(N)c23)c(F)c1F.CS(=O)(=O)O [Crystal form F, (S)-2-(1-(4-amino-3-(2,3-difluoro-4-methoxyphenyl)-1H-pyrazolo[3,4-d]pyrimidin-1-yl)ethyl)-5-chloro-3-phenylquinazoline-4(3H)one methanesulfonate]",24.80 µg/mL,soluble in water,"AUC ([3]; beagle, dog, plasma, po, intragastric, 10 mg/kg, suspension in sodium carboxymethyl cellulose solution, mean n=2, NA = value lower than the lower detection limit): 3.82 µg·h/mL; Cmax [1, 5]: 2.85531 µg/mL"
"COc1ccc(-c2nn([C@@H](C)c3nc4cccc(Cl)c4c(=O)n3-c3ccccc3)c3ncnc(N)c23)c(F)c1F.CS(=O)(=O)O [compound as shown in the formula (I), (S)-2-(1-(4-amino-3-(2,3-difluoro-4-methoxyphenyl)-1H-pyrazolo[3,4-d]pyrimidin-1-yl)ethyl)-5-chloro-3-phenylquinazoline-4(3H)one methanesulfonate]",,,"Pharmacokinetic properties compared with the free alkali (in words) ([3]; oral 10 mg/kg, crystal form F investigated): significantly improved; Pharmacokinetic properties compared with the free alkali (in words) ([1]; SD rats, oral 10 mg/kg, crystal forms C, D and F investigated): significantly improved"

# Now from value to compound, other results behind:
Water solubility [2],Solubility in water (in words) [2],Structure (SMILES),further results
<1.0 µg/mL,soluble in water,"COc1ccc(-c2nn([C@@H](C)c3nc4cccc(Cl)c4c(=O)n3-c3ccccc3)c3ncnc(N)c23)c(F)c1F.CS(=O)(=O)O [Crystal form A, (S)-2-(1-(4-amino-3-(2,3-difluoro-4-methoxyphenyl)-1H-pyrazolo[3,4-d]pyrimidin-1-yl)ethyl)-5-chloro-3-phenylquinazoline-4(3H)one methanesulfonate]",
4.60 µg/mL,soluble in water,"COc1ccc(-c2nn([C@@H](C)c3nc4cccc(Cl)c4c(=O)n3-c3ccccc3)c3ncnc(N)c23)c(F)c1F.CS(=O)(=O)O [Crystal form D, (S)-2-(1-(4-amino-3-(2,3-difluoro-4-methoxyphenyl)-1H-pyrazolo[3,4-d]pyrimidin-1-yl)ethyl)-5-chloro-3-phenylquinazoline-4(3H)one methanesulfonate]","Cmax [1, 5]: 1.866 µg/mL"
1.25 µg/mL,soluble in water,"COc1ccc(-c2nn([C@@H](C)c3nc4cccc(Cl)c4c(=O)n3-c3ccccc3)c3ncnc(N)c23)c(F)c1F.CS(=O)(=O)O [Crystal form E, (S)-2-(1-(4-amino-3-(2,3-difluoro-4-methoxyphenyl)-1H-pyrazolo[3,4-d]pyrimidin-1-yl)ethyl)-5-chloro-3-phenylquinazoline-4(3H)one methanesulfonate]",
